Where a name gives a salt, the structure may show the parent alone.
How the values were obtained:
[1] = Human hepatocyte stability; type: in vitro ADME; conditions: human hepatocytes
in vitro = conditions: mouse
KDR = KDR (Homo sapiens, UniProt P35968)
[2] = target: T1, BaF3 cells expressing KIF5B-RET (Homo sapiens, UniProt P07949+P33176)
T1 sequence (P33176+P07949 with tags, fused parts or gaps): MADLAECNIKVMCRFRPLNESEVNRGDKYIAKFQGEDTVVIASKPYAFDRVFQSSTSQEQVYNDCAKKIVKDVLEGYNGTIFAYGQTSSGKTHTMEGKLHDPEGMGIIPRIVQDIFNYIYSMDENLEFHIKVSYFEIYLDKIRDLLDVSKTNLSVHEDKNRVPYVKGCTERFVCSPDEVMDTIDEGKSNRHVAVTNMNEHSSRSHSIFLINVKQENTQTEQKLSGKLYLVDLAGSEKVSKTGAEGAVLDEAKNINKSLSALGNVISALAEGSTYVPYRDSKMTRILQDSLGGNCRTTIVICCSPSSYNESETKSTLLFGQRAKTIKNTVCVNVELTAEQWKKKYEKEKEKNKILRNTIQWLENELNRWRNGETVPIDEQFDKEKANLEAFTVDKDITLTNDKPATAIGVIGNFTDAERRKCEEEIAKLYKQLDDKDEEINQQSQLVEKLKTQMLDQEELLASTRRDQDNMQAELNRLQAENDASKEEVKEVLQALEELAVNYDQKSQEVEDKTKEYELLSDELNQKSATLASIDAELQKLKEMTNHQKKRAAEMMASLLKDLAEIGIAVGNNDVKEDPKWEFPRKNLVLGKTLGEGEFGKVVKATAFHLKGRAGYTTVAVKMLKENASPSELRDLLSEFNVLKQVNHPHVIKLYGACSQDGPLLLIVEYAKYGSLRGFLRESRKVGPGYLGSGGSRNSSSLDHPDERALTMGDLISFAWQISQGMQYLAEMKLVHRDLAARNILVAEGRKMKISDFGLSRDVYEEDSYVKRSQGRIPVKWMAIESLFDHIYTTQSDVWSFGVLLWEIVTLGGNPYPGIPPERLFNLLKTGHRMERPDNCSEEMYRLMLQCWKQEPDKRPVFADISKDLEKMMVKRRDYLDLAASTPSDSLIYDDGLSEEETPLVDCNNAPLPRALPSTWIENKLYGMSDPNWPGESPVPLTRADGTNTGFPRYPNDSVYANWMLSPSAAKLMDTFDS

[3] = Mouse hepatocyte stability; type: in vitro ADME; conditions: mouse hepatocytes
Aqueous solubility = type: physicochemical; conditions: aqueous medium (not further specified)
Caco-2 permeability = type: in vitro ADME; conditions: human; Caco-2 cells
[4] = Mouse pharmacokinetics (intravenous and oral); type: in vivo, male CD-1 mice
Protocol: All studies were conducted after review by the Animal Welfare and Ethical Review Body at CRUK:MI and in accordance with the University of Manchester Policy on the use of animals in research. All work was carried out in compliance with the Animals (Scientific Procedures) Act 1986. Pharmacokinetics were studied in male CD-1 mice following single intravenous or oral administration. Blood samples were collected as dried blood spots and assayed following solvent extraction through a phospholipid removal plate followed by LC-MS/MS analysis. The resulting concentration-time data were analysed by non-compartmental methods (PK Solver, Excel Add-In).

[5] = non-modified (wild-type, non RET-driven) BaF3 cells

KDR, sequence (P35968 20-1356): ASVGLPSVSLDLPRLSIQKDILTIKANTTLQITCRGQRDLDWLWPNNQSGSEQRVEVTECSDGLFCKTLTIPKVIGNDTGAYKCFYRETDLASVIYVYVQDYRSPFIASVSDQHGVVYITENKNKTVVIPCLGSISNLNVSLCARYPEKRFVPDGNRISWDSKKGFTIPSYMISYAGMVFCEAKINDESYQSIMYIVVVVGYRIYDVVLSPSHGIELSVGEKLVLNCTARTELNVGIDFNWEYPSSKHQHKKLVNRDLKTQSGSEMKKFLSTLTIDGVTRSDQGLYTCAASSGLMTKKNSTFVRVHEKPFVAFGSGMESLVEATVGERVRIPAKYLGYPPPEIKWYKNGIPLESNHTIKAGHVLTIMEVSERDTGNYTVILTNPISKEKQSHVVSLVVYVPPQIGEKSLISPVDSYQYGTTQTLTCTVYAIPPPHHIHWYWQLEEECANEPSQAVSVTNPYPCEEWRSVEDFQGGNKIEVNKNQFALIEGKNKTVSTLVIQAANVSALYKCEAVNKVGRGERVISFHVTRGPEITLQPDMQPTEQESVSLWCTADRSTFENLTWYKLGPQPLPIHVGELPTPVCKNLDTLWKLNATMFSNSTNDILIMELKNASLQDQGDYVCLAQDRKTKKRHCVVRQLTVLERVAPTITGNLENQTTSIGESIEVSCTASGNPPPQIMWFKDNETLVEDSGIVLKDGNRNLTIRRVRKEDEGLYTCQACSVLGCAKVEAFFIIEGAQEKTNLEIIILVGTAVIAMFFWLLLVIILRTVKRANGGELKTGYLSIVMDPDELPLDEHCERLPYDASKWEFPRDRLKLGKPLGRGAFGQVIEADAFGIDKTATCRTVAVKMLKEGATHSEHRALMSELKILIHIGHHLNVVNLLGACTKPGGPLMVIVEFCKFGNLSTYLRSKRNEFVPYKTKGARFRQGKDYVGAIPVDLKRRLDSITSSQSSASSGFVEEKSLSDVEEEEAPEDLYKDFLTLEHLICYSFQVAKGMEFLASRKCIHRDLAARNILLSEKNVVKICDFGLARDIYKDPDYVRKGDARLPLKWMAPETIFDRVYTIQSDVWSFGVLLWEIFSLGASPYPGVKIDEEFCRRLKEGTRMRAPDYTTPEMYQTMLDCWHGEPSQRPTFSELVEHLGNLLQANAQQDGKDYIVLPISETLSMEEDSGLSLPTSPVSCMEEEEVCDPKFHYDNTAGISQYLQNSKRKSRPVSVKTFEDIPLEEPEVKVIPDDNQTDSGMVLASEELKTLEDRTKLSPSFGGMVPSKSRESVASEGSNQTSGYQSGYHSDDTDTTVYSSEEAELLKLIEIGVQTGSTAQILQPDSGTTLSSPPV

SMILES | hepatocyte CLint [1] [µL/min/1e6 cells] | IC50 (KDR) [nM] | IC50 [2] [nM] | also measured
COc1cc2ncnc(Nc3cccc(O)c3Br)c2cc1OC [Compound 11, 2-Bromo-3-((6,7-dimethoxyquinazolin-4-yl)amino)phenol hydrochloride] | 157 | – | – | IC50 at 48 h (in vitro; [5]): > 10 µM
COc1cc2ncnc(Nc3c(Cl)ccc(O)c3Cl)c2cc1OC [Compound 39, 2,4-Dichloro-3-((6,7-dimethoxyquinazolin-4-yl)amino)phenol] | – | 1400 | – | –
COc1cc2ncnc(Nc3ccc(Br)cc3F)c2cc1OC [Compound 4] | – | 460 | 1700 | –
COc1cc2ncnc(Nc3ccc(Cl)c(O)c3)c2cc1OC [Compound 21] | – | 58 | 940 | –
COc1cc2ncnc(Nc3cccc(O)c3O)c2cc1OC [Compound 10, 3-((6,7-Dimethoxyquinazolin-4-yl)amino)benzene-1,2-diol hydrochloride] | 95.5 | – | – | IC50 at 48 h (in vitro; [5]): > 10 µM
COc1cc2ncnc(Nc3cc(O)ccc3Cl)c2cc1OC [Compound 26, 4-Chloro-3-((6,7-dimethoxyquinazolin-4-yl)amino)phenol] | – | 71 | 85 | –
COc1cc2ncnc(Nc3ccc(C)c(O)c3)c2cc1OC [Compound 20] | – | 18 | 500 | –
COc1cc2ncnc(Nc3ccc(O)cc3)c2cc1OC [Compound 7] | – | 2800 | – | –
COc1cc2ncnc(Nc3cccc(N)c3)c2cc1OC [Compound 8] | – | 7600 | – | –
COc1cc2ncnc(Nc3cc(O)ccc3F)c2cc1OC [Compound 25] | – | 20 | 53 | –
COc1cc2ncnc(Nc3cccc(O)c3F)c2cc1OC [Compound 14, 3-((6,7-Dimethoxyquinazolin-4-yl)amino)-2-fluorophenol] | – | 280 | – | –
COc1cc2ncnc(Nc3c(F)ccc(O)c3C)c2cc1OC [Compound 36, 3-((6,7-Dimethoxyquinazolin-4-yl)amino)-4-fluoro-2-methylphenol hydrochloride] | 20.9 | – | – | hepatocyte CLint [3]: 38.1 µL/min/1e6 cells; solubility (Aqueous solubility): > 100 µM; Papp (Caco-2 permeability): 8.2 ×10⁻⁶ cm/s; Total blood clearance ([4]; intravenous): < 10 % LBF; Oral half-life ([4]; oral): approximately 2 h; bioavailability ([4]; oral): approximately 35%
COc1cc2ncnc(Nc3cccc(O)c3)c2cc1OC [Compound 6] | 76.9 | – | – | IC50 at 48 h (in vitro; [5]): > 10 µM
COc1cc2ncnc(Oc3cccc(O)c3)c2cc1OC [Compound 42, 3-((6,7-Dimethoxyquinazolin-4-yl)oxy)phenol] | – | 150 | 620 | –
COc1cc2ncnc(Nc3c(F)ccc(O)c3Cl)c2cc1OC [Compound 40, 2-Chloro-3-((6,7-dimethoxyquinazolin-4-yl)amino)-4-fluorophenol] | 66.7 | 1100 | – | IC50 at 48 h (in vitro): > 10 µM
COc1cc2ncnc(Nc3cccc(O)c3C)c2cc1OC [Compound 13, 3-((6,7-Dimethoxyquinazolin-4-yl)amino)-2-methylphenol hydrochloride] | 28.4 | – | – | IC50 at 48 h (in vitro): > 10 µM
COc1cc2ncnc(Nc3cccc(O)c3Cl)c2cc1OC [Compound 12, 2-Chloro-3-((6,7-dimethoxyquinazolin-4-yl)amino)phenol hydrochloride] | 174 | – | – | IC50 at 48 h (in vitro): > 10 µM
COc1cc2ncnc(Nc3cc(F)cc(O)c3C)c2cc1OC [Compound 35, 3-((6,7-Dimethoxyquinazolin-4-yl)amino)-5-fluoro-2-methylphenol hydrochloride] | 54.8 | – | – | IC50 at 48 h (in vitro; [5]): > 10 µM
COc1cc2ncnc(Nc3cccc(O)c3C(F)(F)F)c2cc1OC [Compound 17, 3-((6,7-Dimethoxyquinazolin-4-yl)amino)-2-(trifluoromethyl)phenol] | – | > 10000 | – | –
COc1cc2ncnc(Nc3cccc(O)c3OC)c2cc1OC [Compound 15, 3-((6,7-Dimethoxyquinazolin-4-yl)amino)-2-methoxyphenol] | – | > 10000 | – | –
COc1cc2ncnc(Nc3c(F)ccc(O)c3F)c2cc1OC [Compound 33, 3-((6,7-Dimethoxyquinazolin-4-yl)amino)-2,4-difluorophenol] | 68.9 | 69 | 120 | IC50 at 48 h (in vitro; [5]): > 10 µM
COc1cc2ncnc(Nc3c(Cl)ccc(O)c3C)c2cc1OC [Compound 37, 4-Chloro-3-((6,7-dimethoxyquinazolin-4-yl)amino)-2-methylphenol] | – | > 10000 | 3600 | –
COc1cc2ncnc(Nc3c(Cl)ccc(O)c3F)c2cc1OC [Compound 34, 4-Chloro-3-((6,7-dimethoxyquinazolin-4-yl)amino)-2-fluorophenol] | 93.3 | – | – | IC50 at 48 h (in vitro): > 10 µM
COc1cc2ncnc(Nc3cc(O)c(F)cc3F)c2cc1OC [Compound 28] | – | 9.5 | 53 | –
COc1cc2ncnc(Nc3cc(O)c(C)cc3F)c2cc1OC [Compound 30] | 91.9 | 2.3 | 41 | IC50 at 48 h (in vitro; [5]): > 1 µM
COc1cc2ncnc(Nc3cccc(O)c3C#N)c2cc1OC [Compound 18, 2-((6,7-Dimethoxyquinazolin-4-yl)amino)-6-hydroxybenzonitrile] | – | > 10000 | – | –
COc1cccc(Nc2ncnc3cc(OC)c(OC)cc23)c1 [Compound 9] | – | 4800 | – | –

— article PMC4896931, “The discovery of 2-substituted phenol quinazolines as potent RET kinase inhibitors with improved KDR selectivity” (European Journal of Medicinal Chemistry, 2016)
